Broadly, the Emax is the maximal effect, on the per cent scale that the assay sets. Usually EC50 stands for the midpoint of the concentration-response curve. A high value points to lower potency in that assay.

Activity calls are given as the source filed them. The rule behind the calls is not given here.

The source of these data is ChEMBL document CHEMBL4422673, “Discovery, synthesis and characterization of a series of (1-alkyl-3-methyl-1H-pyrazol-5-yl)-2-(5-aryl-2H-tetrazol-2-yl)acetamides as novel GIRK1/2 potassium channel activators” (Bioorg Med Chem Lett, 2019).

Series [1] has as its target Kir3.1/Kir3.4 (Homo sapiens) (UniProt P48549+P48544). In words: Activation of human GIRK1/4 expressed in HEK293 cells co-expressing rat mGlu8 by thallium flux assay relative to control. In kind it is cell-based.
Series [2] has as its target T1, Kir3.1/Kir3.2 (Homo sapiens, UniProt P48051+P48549).
T1 sequence (P48549 whole entry): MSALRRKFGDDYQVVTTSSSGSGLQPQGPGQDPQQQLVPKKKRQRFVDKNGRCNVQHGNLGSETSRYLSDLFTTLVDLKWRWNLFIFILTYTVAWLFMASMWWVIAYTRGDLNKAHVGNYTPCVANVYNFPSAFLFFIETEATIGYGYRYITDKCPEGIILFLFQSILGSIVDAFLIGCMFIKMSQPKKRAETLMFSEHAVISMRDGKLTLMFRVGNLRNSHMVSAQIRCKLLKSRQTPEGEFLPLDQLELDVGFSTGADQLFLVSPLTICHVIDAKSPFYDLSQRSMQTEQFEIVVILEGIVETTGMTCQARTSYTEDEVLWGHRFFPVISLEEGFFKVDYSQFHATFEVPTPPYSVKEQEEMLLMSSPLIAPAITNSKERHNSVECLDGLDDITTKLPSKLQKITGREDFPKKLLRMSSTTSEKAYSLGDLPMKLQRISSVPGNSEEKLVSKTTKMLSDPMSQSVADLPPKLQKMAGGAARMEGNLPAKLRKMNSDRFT
T1 sequence (P48051 whole entry): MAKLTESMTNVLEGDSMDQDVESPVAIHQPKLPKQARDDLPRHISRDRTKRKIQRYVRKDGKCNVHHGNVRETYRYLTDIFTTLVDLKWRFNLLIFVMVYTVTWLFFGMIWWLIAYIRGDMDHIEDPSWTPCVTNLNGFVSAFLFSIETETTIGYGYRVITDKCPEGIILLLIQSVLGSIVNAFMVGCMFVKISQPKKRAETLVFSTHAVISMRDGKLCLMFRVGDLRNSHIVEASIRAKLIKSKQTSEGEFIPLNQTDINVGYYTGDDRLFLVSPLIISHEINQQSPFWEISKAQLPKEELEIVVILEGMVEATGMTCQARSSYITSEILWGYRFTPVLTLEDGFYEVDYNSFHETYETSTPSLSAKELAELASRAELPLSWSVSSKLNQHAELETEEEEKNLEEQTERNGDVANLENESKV
In words: (§1) Activation of human GIRK1/2 expressed in HEK293 cells co-expressing rat mGlu8 by thallium flux assay. Type of series: cell-based.

Series [3] concerns the target T2, Kir3.1/Kir3.4 (Homo sapiens, UniProt P48544+P48549).
T2 sequence (P48549 whole entry): T1 sequence (P48549 whole entry)
T2 sequence (P48544 whole entry): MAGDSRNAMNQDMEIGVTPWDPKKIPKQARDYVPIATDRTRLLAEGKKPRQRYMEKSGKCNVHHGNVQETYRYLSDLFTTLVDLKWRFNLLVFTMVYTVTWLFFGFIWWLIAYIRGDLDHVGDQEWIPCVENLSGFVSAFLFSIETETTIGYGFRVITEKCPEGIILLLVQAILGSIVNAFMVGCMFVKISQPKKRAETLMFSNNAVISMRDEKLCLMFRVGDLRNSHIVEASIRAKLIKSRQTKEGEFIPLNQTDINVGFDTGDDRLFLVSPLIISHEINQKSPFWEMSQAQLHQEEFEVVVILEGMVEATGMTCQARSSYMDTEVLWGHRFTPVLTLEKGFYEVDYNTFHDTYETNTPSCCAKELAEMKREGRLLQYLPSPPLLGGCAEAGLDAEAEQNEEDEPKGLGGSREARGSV
In words: (§2) Activation of human GIRK1/4 expressed in HEK293 cells co-expressing rat mGlu8 by thallium flux assay. Type of series: cell-based.

The species named for series [4] is Homo sapiens. In words: Ratio of EC50 for activation of human GIRK1/4 expressed in HEK293 cells co-expressing rat mGlu8 by thallium flux assay to EC50 for Activation of human GIRK1/2 expressed in HEK293 cells co-expressing rat mGlu8 by thallium flux assay. In kind it is cell-based.
The nature of series [5]: Stability in mouse plasma. In kind it is ADME, cell-free.
The nature of series [6]: Clearance in mouse liver microsomes. For orientation: Microsomes from liver hold many membrane-bound enzymes, among them those of drug oxidation.
Series [7] can be described thus: Clearance in human liver microsomes.
A short description of series [8]: Fraction unbound in human plasma. Type of series: ADME, cell-free.
For series [9], the target named is T3, Kir3.1/Kir3.2 (Homo sapiens) (UniProt P48549+P48051). In words: Activation of human GIRK1/2 expressed in HEK293 cells co-expressing rat mGlu8 by thallium flux assay relative to control. Type of series: cell-based.
The target in series [10] is T3, Kir3.1/Kir3.2 (Homo sapiens). The description is as §1. Type of series: cell-based.
Series [11] has as its target T4, Kir3.1/Kir3.4 (Homo sapiens, UniProt P48549+P48544).
T4 sequence (P48549 whole entry): T1 sequence (P48549 whole entry)
T4 sequence (P48544 whole entry): T2 sequence (P48544 whole entry)
The series is described as §2. Type of series: cell-based. The following applies: hek293.

Series [12] has as its target T5, Kir3.1/Kir3.2 (Homo sapiens, UniProt P48549+P48051).
T5 sequence (P48549 whole entry): T1 sequence (P48549 whole entry)
T5 sequence (P48051 whole entry): T1 sequence (P48051 whole entry)
The series is described as §1. The conditions noted are these: hek293. In kind it is cell-based.

Series [13] in a line: Extraction ratio in human liver S9 fraction. The conditions noted are these: read-out: ERH. Type of series: ADME, subcellular.
Series [14] is described as follows: Half life in human liver S9 fraction. In kind it is ADME, subcellular.

`Cc1cc(NC(=O)Cn2nnc(-c3ccc(Cl)c(Cl)c3)n2)n(C2CCCCC2)n1`: the results for the Emax in series [1] and in series [9] were 70% and 84%, respectively. In addition, the 50% effective concentration (EC50) in series [2] is 1220 nM; in series [3], 2200 nM. Besides, the Ratio EC50 in series [4] fell in the range of 3 to 5. For the same compound, in [5], the Stability result is “Unstable”. Further, the CLhep predicted in series [6] was 76 mL/min/kg; in series [7], 17.4 mL/min/kg. Further, the Fu in series [8] is less than 0.3%.
Regarding `Cc1cc(NC(=O)Cn2nnc(-c3cccc(F)c3)n2)n(C2CCCCC2)n1`, the figures for the Emax in [1] and in series [9] were 80% and 96%, respectively. The Ratio EC50 in series [4] is 3 to 5. For the same compound, in series [5], the Stability result is on record as “Unstable”. Also, the CLhep predicted in [6] is 87.1 mL/min/kg; in series [7] it was 17.8 mL/min/kg. In [8], this compound yielded a Fu of 1%.
With `Cc1cc(N(C)C(=O)Cn2nnc(-c3ccccc3)n2)n(C2CCCCC2)n1`, the result in series [10] was inactive.
As to `Cc1cc(NC(=O)Cn2nnc(-c3ccccc3)n2)n(C2CCS(=O)(=O)CC2)n1`, the Emax result in [1] is “inactive”. Moreover, the figures for the EC50 in series [2] and in [11] were greater than 10000 nM and “Not Active”, respectively. In series [9], this compound yielded an Emax greater than 25%.
For the compound `O=C(Cn1nnc(-c2ccccc2)n1)Nc1cc(C2(C(F)(F)F)CC2)nn1C1CCCCC1`, the Emax result in [1] and in [9] was “inactive” throughout. Further, the EC50 result in [12] and in series [11] was “Not Active” each time.
For the compound `Cc1cc(NC(=O)Cc2ccc(-c3ccccc3)cn2)n(C2CCCCC2)n1`, the Emax result in series [1] was “inactive”. In addition, the EC50 in series [2] was 1520 nM; in series [11] it was “Not Active”. In series [9], the Emax came to 36%.
Regarding `Cc1cc(NC(=O)Cn2nnc(-c3ccccc3)n2)n(C2CCC(F)(F)CC2)n1`, the Emax in series [1] worked out at 52%; in series [9] it was 68%. Further, the EC50 amounted to 84 nM in series [2] and 383 nM in [3]. Also, the Stability entry in [5] was “Unstable”. In addition, the CLhep predicted is 80 mL/min/kg in series [6] and 15.9 mL/min/kg in [7]. Further, in series [8], the Fu is recorded as 1.5%.
With `Cc1cc(NC(=O)Cn2nncc2-c2ccccc2)n(C2CCCCC2)n1`, the Emax in series [1] came out at 49%; in series [9], 87%. Besides, the values for the EC50 in series [2] and in series [3] were 375 nM and 1030 nM, respectively. Besides, in [5], the Stability entry is on record as “Unstable”. Moreover, the values for the CLhep predicted in [6] and in series [7] were 87.7 mL/min/kg and 18.3 mL/min/kg, respectively. For the same compound, the Fu in series [8] was found to be 0.4%.
`Cc1cc(NC(=O)Cn2cc(-c3ccccc3)nn2)n(C2CCCCC2)n1`: the maximum response (Emax) worked out at 76% in series [1] and 87% in series [9]. For the same compound, the figures for the EC50 in series [2] and in series [3] were 116 nM and 412 nM, respectively. In addition, the Stability result in [5] was “Unstable”. The CLhep predicted in series [6] was 78.2 mL/min/kg; in [7], 14.6 mL/min/kg. Also, the Fu in series [8] was found to be 3%.
For the compound `Cc1nc(-c2ccccc2)c(NC(=O)Cn2nnc(-c3ccccc3)n2)s1`, the Emax entry in series [1] and in series [9] was “inactive” each time. Moreover, the EC50 result in series [12] and in series [11] was “Not Active” in each case.
For `Cc1cc(NC(=O)Cn2nnc(-c3ccccc3)n2)n(CC2CCCCC2)n1`, the figures for the Emax in [1] and in [9] were 58% and 77%, respectively. Moreover, the EC50 in series [2] was determined as 176 nM; in [3], 283 nM. The Stability result in [5] was “Unstable”. Moreover, the results for the CLhep predicted in [6] and in series [7] were 88.7 mL/min/kg and 20.4 mL/min/kg, respectively. The Fu in series [8] is 0.3%.
Consider `CC1(c2cc(NC(=O)Cn3nnc(-c4ccccc4)n3)n(C3CCCCC3)n2)CC1`, for which the Emax entry in series [1] is “inactive”. Moreover, the values for the EC50 in [2] and in [11] were greater than 10000 nM and “Not Active”, respectively. The Emax in series [9] is greater than 10%.
As for `Cc1cc(NC(=S)Cn2nnc(-c3ccccc3)n2)n(C2CCCCC2)n1`, the Emax in series [1] stood at 36%; in series [9], 80%. In addition, the EC50 in series [2] came to 623 nM; in [3] it was 1260 nM. The Stability entry in [5] was “Unstable”. For the same compound, the CLhep predicted in series [7] is 18.9 mL/min/kg. The compound further had a Fu in series [8] of less than 0.06%.
Take `Cc1cc(NC(=O)Cn2nnc(-c3ccc(F)c(F)c3)n2)n(C2CCCCC2)n1`: the values for the Emax in series [1] and in series [9] were 79% and 93%, respectively. The EC50 worked out at 116 nM in [2] and 392 nM in series [3]. In series [4], the Ratio EC50 fell in the range of 3 to 5.
`Cc1nc(NC(=O)Cn2nnc(-c3ccccc3)n2)n(-c2ccccc2)n1`: the Emax entry in [1] and in [9] was “inactive” throughout. The EC50 result in series [12] and in [11] was “Not Active” throughout.
As to `Cc1cc(NC(=O)Cn2nnc(-c3cccc(Cl)c3)n2)n(C2CCCCC2)n1`, the Emax in [1] was 66%; in [9], 89%. The EC50 in series [2] turned out to be 300 nM; in [3], 662 nM. In addition, the Ratio EC50 in series [4] fell in the range of 3 to 5.
Consider `Cc1cc(NC(=O)Cn2nnc(-c3ccccc3)n2)n(C2CCCCC2)n1`, for which the figures for the maximum response (Emax) in series [1] and in series [9] were 63% and 92%, respectively. For the same compound, the EC50 in series [2] is 96 nM; in series [3], 259 nM. In addition, in [4], the Ratio EC50 was found to be 3. The Stability entry in series [5] was “Unstable”. Also, the results for the CLhep predicted in [6] and in [7] were 87 mL/min/kg and 18.9 mL/min/kg, respectively. Also, in series [8], the Fu is listed as 1.1%.
As for `O=C(Cn1nnc(-c2ccccc2)n1)Nc1ccccn1`, the Emax result in series [1] and in series [9] was “inactive” throughout. Also, the EC50 entry in [12] and in series [11] was “Not Active” each time.
As to `Cc1cc(NC(=O)Cn2nnc(-c3ccccc3)n2)n(-c2ccccc2)n1`, the Emax in [1] was 25%; in series [9] it was 66%. Besides, the EC50 in series [2] was found to be 3020 nM; in series [3], 4090 nM.
With `Cc1cc(NC(=O)Cn2nnc(-c3ccccc3)n2)n(C2CCS(=O)(=O)C2)n1` (centres undefined), in series [13], the hepatic extraction ratio was less than 0.05. The values for the maximal response (Emax) in series [1] and in series [9] were 75% and 93%, respectively. The EC50 came out at 1030 nM in series [2] and 2170 nM in series [3]. In [5], the Stability result is recorded as “Unstable”. Further, in series [14], the t1/2 is 10.79 h. Further, the Fu in series [8] was 3.7%.
Turning to `Cc1cc(NC(=O)Cn2nnc(-c3ccccc3)n2)n(C2CCC(C)(C)CC2)n1`, the Emax result in series [1] is “inactive”. Besides, the values for the EC50 in series [2] and in series [11] were greater than 221 nM and “Not Active”, respectively. The Emax in series [9] was greater than 19%.
